Experimental data from PubChem BioAssay AID602459 (Sanford-Burnham Center for Chemical Genomics, 2012).

Target: Neurotensin receptor type 1 (Homo sapiens) (UniProt P30989)
Experiment: agonism at neurotensin receptor 1, calcium readout – cell-based, fluorescence, calcium flux, dose response, SAR follow-up (AID 602459)
Settings: NTR1-expressing cells, agonist mode

Chain of Neurotensin receptor type 1 (Homo sapiens) (P30989 whole entry, looked up): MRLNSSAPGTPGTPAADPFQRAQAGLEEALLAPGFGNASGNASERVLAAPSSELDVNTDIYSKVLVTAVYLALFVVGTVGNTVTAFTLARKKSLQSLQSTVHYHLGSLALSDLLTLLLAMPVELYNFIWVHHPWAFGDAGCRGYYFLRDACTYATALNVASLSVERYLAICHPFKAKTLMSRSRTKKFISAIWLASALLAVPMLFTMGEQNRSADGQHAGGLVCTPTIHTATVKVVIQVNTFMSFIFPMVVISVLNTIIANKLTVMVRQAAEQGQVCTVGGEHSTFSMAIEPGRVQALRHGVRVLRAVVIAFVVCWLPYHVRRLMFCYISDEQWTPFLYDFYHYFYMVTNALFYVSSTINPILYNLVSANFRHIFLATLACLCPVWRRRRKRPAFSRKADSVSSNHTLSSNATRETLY

SMILES | EC50
COc1cc2c3nnc(-c4ccc(F)cc4)c-3cn(Cc3cccc(C)c3)c2cc1OC | 1500 nM
COc1cccc(OC)c1-c1cc(C(=O)N[C@@H](CC(C)C)C(=O)O)nn1-c1ccnc2cc(Cl)ccc12 | < 156 nM
COc1cccc(OC)c1-c1nc(C(=O)N[C@@H](CC(C)C)C(=O)O)cn1-c1ccnc2cc(Cl)ccc12 | 298 nM
